PMC10030462, “SB2301-mediated perturbation of membrane composition in lipid droplets induces lipophagy and lipid droplets ubiquitination” (Communications Biology, 2023)

Experiments:
[1] = tested on: HeLa human cervical cancer cells; test: cells; parameters: cellular lipid droplet reduction, fluorescence imaging high-content phenotypic screen; details: 24 h, lipid droplet reduction in HeLa; for IC50: read-out: LD reduction (IC50, uM) Potency
Description: The LD reduction activity of these analogues (1–20) was initially evaluated in human cervical cancer HeLa cells at a fixed concentration (10 μM each) to determine the efficacy of LD reduction. In addition, potency was determined by measuring the half-maximal inhibitory concentration (IC50) (Supplementary Table 1). Compounds with high cytotoxicity and low water solubility were excluded during high-content phenotypic screening. […] We also observed a similar pattern of LD reduction in human hepatocellular carcinoma HepG2 cells (Supplementary Fig. 2A) and mouse hepatocyte AML12 cells (Supplementary Fig. 2B). Consistent with the reduction in cellular LDs, the cellular triglyceride (TG) content was reduced in a dose-dependent manner (Fig. 1E). Based on these findings, we conducted a further study to determine the mechanism by which SB2301 reduced cellular LDs.

[2] = molecular target: T1, PCYT2 (ethanolamine-phosphate cytidylyltransferase 2) (Homo sapiens, UniProt Q99447); test: SPR (Biacore T100, immobilized human PCYT2, […] fit); also CETSA and TS-FITGE in HepG2 cells; format: binding
T1 construct: Human PCYT2 (Prospec, enz-221)
T1 sequence (Q99447 whole entry): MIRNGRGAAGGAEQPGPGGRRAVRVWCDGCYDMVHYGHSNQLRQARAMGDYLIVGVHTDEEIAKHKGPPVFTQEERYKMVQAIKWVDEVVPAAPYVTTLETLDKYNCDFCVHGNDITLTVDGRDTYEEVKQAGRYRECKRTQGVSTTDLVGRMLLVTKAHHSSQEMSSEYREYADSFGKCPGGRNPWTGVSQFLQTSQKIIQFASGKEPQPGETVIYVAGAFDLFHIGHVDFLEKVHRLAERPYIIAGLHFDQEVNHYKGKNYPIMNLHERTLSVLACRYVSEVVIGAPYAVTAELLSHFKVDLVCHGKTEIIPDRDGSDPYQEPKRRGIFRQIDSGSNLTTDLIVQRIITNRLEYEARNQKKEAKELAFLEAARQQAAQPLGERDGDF

Work on `Oc1cccc(-c2ccc3nc(-c4cn(-c5ccccc5Cl)nn4)ccc3c2)c1` [compound 10, 10] yielded an inhibition at 10 µM [1] of 2.7% and an IC50 [1] of 10.1 µM.
`Oc1cccc(-c2ccc3nc(-c4cn(-c5ccc(Br)cc5)nn4)ccc3c2)c1` [compound 12, 12] was tested, and the inhibition at 10 µM [1] was 36.8% and the IC50 [1] was 4.7 µM.
Work on `Oc1cccc(-c2ccc3nc(-c4cn(-c5ccc(C(F)(F)F)cc5)nn4)ccc3c2)c1` [compound 6, 6] yielded an inhibition at 10 µM [1] of 35.9% and an IC50 [1] of 32 µM.
Work on `Oc1cccc(-c2ccc3nc(-c4cn(-c5ccccc5C(F)(F)F)nn4)ccc3c2)c1` [compound 4, SB2301] yielded an inhibition at 10 µM [1] of 64.5%, an IC50 [1] of 4.4 µM and a Kd [2] of ~26 µM.
In the case of `N#Cc1cccc(-n2cc(-c3ccc4cc(-c5cccc(O)c5)ccc4n3)nn2)c1` [compound 8, 8], the inhibition at 10 µM [1] is reported as -7.1% and the IC50 [1] is reported as 27.6 µM.
Work on `O=[N+]([O-])c1ccccc1-n1cc(-c2ccc3cc(-c4cccc(O)c4)ccc3n2)nn1` [compound 14, 14] yielded an inhibition at 10 µM [1] of 48.5% and an IC50 [1] of 7.9 µM.
`N#Cc1ccccc1-n1cc(-c2ccc3cc(-c4cccc(O)c4)ccc3n2)nn1` [compound 7, 7] was tested, and the inhibition at 10 µM [1] was 30.4% and the IC50 [1] was 14.8 µM.
Work on `COc1ccc(-n2cc(-c3ccc4cc(-c5cccc(O)c5)ccc4n3)nn2)cc1` [compound 3, 3] yielded an inhibition at 10 µM [1] of 19% and an IC50 [1] of 3.7 µM.
Compound `Oc1cccc(-c2ccc3nc(-c4cn(-c5ccccc5O)nn4)ccc3c2)c1` [compound 13, 13] has an inhibition at 10 µM [1] of 12.7% and an IC50 [1] of 11.6 µM.
`Oc1cccc(-c2ccc3nc(-c4cn(-c5cccc(F)c5)nn4)ccc3c2)c1` [compound 11, 11] was tested, and the inhibition at 10 µM [1] was 19.2% and the IC50 [1] was 20.6 µM.
With `COc1ccccc1-n1cc(-c2ccc3cc(-c4cccc(O)c4)ccc3n2)nn1` [compound 1, 1] the inhibition at 10 µM [1] was 50% and the IC50 [1] was 6.7 µM.
